# Results from patent publication US20240398781A1, “SPIROCYCLIC CYCLIC MODULATORS OF CHOLESTEROL BIOSYNTHESIS AND THEIR USE FOR PROMOTING REMYELINATION” (GENENTECH, INC., priority 2021, published 2024).
# pEC50, pKi: −log10 of the molar value. Read-outs that look alike come from different tables or passages of the source.
# Tests used:
# [1] = biological target: human emopamil binding protein and human 7-dehydrocholesterol reductase co-expressing cells (hEBP-DHCR7 membrane) (Homo sapiens (Human), UniProt Q15125); assay: Radioligand filter binding assay on hEBP-DHCR7 membrane; details: [3H]-(S)-6-(2-Methyl-3-(6-(trifluoromethyl)pyridin-3-yl)propyl)-2-thia-6-azaspiro[3.4]octane 2,2-dioxide radioligand, HEK293 membrane co-expressing hEBP and hDHCR7
# human emopamil binding protein and human 7-dehydrocholesterol reductase co-expressing cells (hEBP-DHCR7 membrane), sequence (Q15125 whole entry): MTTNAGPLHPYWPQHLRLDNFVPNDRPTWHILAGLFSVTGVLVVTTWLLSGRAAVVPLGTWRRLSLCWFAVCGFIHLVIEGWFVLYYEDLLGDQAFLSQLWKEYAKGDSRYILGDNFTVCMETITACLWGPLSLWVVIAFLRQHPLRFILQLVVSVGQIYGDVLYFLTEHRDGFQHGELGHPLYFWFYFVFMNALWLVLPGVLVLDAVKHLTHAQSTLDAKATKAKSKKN
# Summary of the method: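 HEK293 cells transiently co-expressing human EBP and DHCR7 supplied whole-cell membranes (10 μg/well), incubated 3 h at 22 °C with [3H]-labelled spiro-octane dioxide ligand (added at 25 nM) and compound (0.06-5000 nM final, 8 doses, n=2). Bound ligand was collected on PEI-treated GF/B filters and counted by scintillation. IC50 was Hill-fitted from % inhibition and reported as Ki.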
# [2] = test system: EBP (zymostenol accumulation in EpiSC-derived OPCs); assay: GC/MS-based sterol profiling, zymostenol accumulation in OPCs; assay type: cell-based, mouse; details: EpiSC-derived OPCs, 24 hr treatment, 8 doses from 0.15 nM to 333 nM, read-out: Zymostenol GCMS EC50
# Summary of the method: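 EpiSC-derived OPCs (100,000/well) were treated 24 h in N2B27 without growth factors. Sterols were TMS-derivatized and analysed by GC/MS full-scan EI, quantified against cholesterol-d7. Zymostenol was normalized to the level after 24 h with 100 nM positive control reference.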
SMILES,pKi [1],"pEC50 ([2]; Mus musculus, 24 h)",pEC50 [2]
"Cn1nc(C(F)(F)F)cc1[C@H]1CC[C@H](N2CCC3(C2)CS(=O)(=O)C3)CC1 [Compound 2B, 6-((1r,4r)-4-(1-methyl-3-(trifluoromethyl)-1H-pyrazol-5-yl)cyclohexyl)-2-thia-6-azaspiro[3.4]octane 2,2-dioxide]",7.16,7.92,
"O=S1(=O)CC2(CCN([C@H]3CCN(c4ccc(C(F)(F)F)nc4)C3)C2)C1 (single isomer, unassigned) [9A*]",7.23,8.00,
"Cn1nc(C(F)(F)F)cc1[C@H]1CC[C@H](N2CCC[C@@]3(CCS(=O)(=O)C3)C2)CC1 (single isomer, unassigned) [26A*]",7.60,8.40,
"CC(C)n1nc(C2CC2)nc1[C@H]1CC[C@@H](N2CCC3(C2)CS(=O)(=O)C3)C1 (single isomer, unassigned) [18D*, 6-(3-(3-cyclopropyl-1-isopropyl-1H-1,2,4-triazol-5-yl)cyclopentyl)-2-thia-6-azaspiro[3.4]octane 2,2-dioxide]",5.93,6.92,
"Cc1nc(C(F)(F)F)ccc1N1CCC(N2CCC3(C2)CS(=O)(=O)C3)CC1 [Compound 29, 6-(1-(2-methyl-6-(trifluoromethyl)pyridin-3-yl)piperidin-4-yl)-2-thia-6-azaspiro[3.4]octane 2,2-dioxide]",6.64,8.15,
"O=S1(=O)CC2(CCN(C3CCN(c4ncc(C(F)(F)F)cc4F)CC3)C2)C1 [Compound 32, 6-(1-(3-fluoro-5-(trifluoromethyl)pyridin-2-yl)piperidin-4-yl)-2-thia-6-azaspiro[3.4]octane 2,2-dioxide]",7.96,8.15,
"O=S1(=O)CC2(CCN([C@@H]3CO[C@@H](c4ccc(C(F)(F)F)cc4)C3)C2)C1 (stereo in doubt) [19B*, 6-((3S,5R)-5-(4-(trifluoromethyl)phenyl)tetrahydrofuran-3-yl)-2-thia-6-azaspiro[3.4]octane 2,2-dioxide]",7.70,8.00,
"Cn1nc(C(F)(F)F)cc1[C@H]1CC[C@H](N2CC[C@@]3(CCS(=O)(=O)C3)C2)CC1 (single isomer, unassigned) [38D*]",7.10,,7.40
"O=S1(=O)CC2(CCN([C@H]3CCCN(c4ccc(C(F)(F)F)cc4)C3)C2)C1 (single isomer, unassigned) [22B*]",7.24,7.46,
"Cn1nc(C(F)(F)F)cc1[C@H]1CC[C@H](N2CCC[C@]3(CCS(=O)(=O)C3)C2)CC1 (single isomer, unassigned) [26B*]",7.92,7.42,
"CCn1nc(C(F)(F)F)cc1[C@H]1CC[C@H](N2CCC3(C2)CS(=O)(=O)C3)CC1 [Compound 15, 6-((1r,4r)-4-(1-Ethyl-3-(trifluoromethyl)-1H-pyrazol-5-yl)cyclohexyl)-2-thia-6-azaspiro[3.4]octane 2,2-dioxide]",7.25,8.40,
"Cc1cc(C(F)(F)F)ncc1[C@H]1CC[C@H](N2CCC3(C2)CS(=O)(=O)C3)CC1 [Compound 21B, 6-((1r,4r)-4-(4-Methyl-6-(trifluoromethyl)pyridin-3-yl)cyclohexyl)-2-thia-6-azaspiro[3.4]octane 2,2-dioxide]",7.34,7.30,
"O=S1(=O)CC2(CCN([C@@H]3CC[C@H](c4ccc(C(F)(F)F)nc4)C3)C2)C1 (single isomer, unassigned) [11C*]",7.46,8.39,
"CC(C)n1nc(C(F)(F)F)cc1[C@H]1CC[C@H](N2CCC3(C2)CS(=O)(=O)C3)CC1 [Compound 8A, 6-((1r,4r)-4-(1-isopropyl-3-(trifluoromethyl)-1H-pyrazol-5-yl)cyclohexyl)-2-thia-6-azaspiro[3.4]octane 2,2-dioxide]",7.47,7.85,
"O=S1(=O)CC2(CCN([C@H]3CC[C@H](c4cc(C(F)(F)F)nn4C4CCC4)CC3)C2)C1 [Compound 23B, 6-((1r,4r)-4-(1-Cyclobutyl-3-(trifluoromethyl)-1H-pyrazol-5-yl)cyclohexyl)-2-thia-6-azaspiro[3.4]octane 2,2-dioxide]",7.92,8.05,
"O=S1(=O)CC2(CCN(C3CC[C@H](c4ccc(C(F)(F)F)nc4)C3)C2)C1 (single isomer, unassigned) [11D*]",7.40,7.36,

SMILES,pKi [1],"pEC50 ([2]; Mus musculus, 24 h)",pEC50 [2]
"O=S1(=O)CC2(CCN([C@H]3CC[C@H](c4ccc(C(F)(F)F)nc4)CC3)C2)C1 [Compound 14A, 6-((1r,4r)-4-(6-(Trifluoromethyl)pyridin-3-yl)cyclohexyl)-2-thia-6-azaspiro[3.4]octane 2,2-dioxide]",7.23,7.96,
"O=S1(=O)CC2(CCN([C@H]3CC[C@@H](c4cc(C(F)(F)F)nn4C4CC4)CC3)C2)C1 [Compound 12B, 6-((1s,4s)-4-(1-Cyclopropyl-3-(trifluoromethyl)-1H-pyrazol-5-yl)cyclohexyl)-2-thia-6-azaspiro[3.4]octane 2,2-dioxide]",7.49,7.64,
"Cn1nc(C(F)(F)F)cc1[C@H]1CC[C@H](N2CCC3(CC2)CS(=O)(=O)C3)CC1 [Compound 25B, 7-((1r,4r)-4-(1-methyl-3-(trifluoromethyl)-1H-pyrazol-5-yl)cyclohexyl)-2-thia-7-azaspiro[3.5]nonane 2,2-dioxide]",6.57,7.59,
"O=S1(=O)CC2(CCN([C@H]3CC[C@@H](c4cc(C(F)(F)F)nn4C4CC4)CC3)CC2)C1 [Compound 40A, 7-((1r,4r)-4-(1-cyclopropyl-3-(trifluoromethyl)-1H-pyrazol-5-yl)cyclohexyl)-2-thia-7-azaspiro[3.5]nonane 2,2-dioxide]",7.23,8.40,
"Cn1nc(C(F)(F)F)cc1[C@H]1CC[C@@H](N2CCC3(C2)CS(=O)(=O)C3)CC1 [Compound 2A, 6-((1s,4s)-4-(1-methyl-3-(trifluoromethyl)-1H-pyrazol-5-yl)cyclohexyl)-2-thia-6-azaspiro[3.4]octane 2,2-dioxide]",7.35,7.25,
"CCn1nc(-c2ccc(C(F)(F)F)nc2)nc1[C@H]1CC[C@@H](N2CCC3(C2)CS(=O)(=O)C3)CC1 [36B*, 6-((1s,4s)-4-(1-ethyl-3-(6-(trifluoromethyl)pyridin-3-yl)-1H-1,2,4-triazol-5-yl)cyclohexyl)-2-thia-6-azaspiro[3.4]octane 2,2-dioxide]",6.59,7.64,
"O=S1(=O)CC2(CCN([C@@H]3CO[C@H](c4ccc(C(F)(F)F)cc4)C3)C2)C1 (stereo in doubt) [19C*, 6-((3S,5S)-5-(4-(Trifluoromethyl)phenyl)tetrahydrofuran-3-yl)-2-thia-6-azaspiro[3.4]octane 2,2-dioxide]",7.74,6.96,
"CC(C)n1nc(-c2cncc(C(F)(F)F)c2)cc1[C@H]1CC[C@H](N2CCC3(C2)CS(=O)(=O)C3)C1 (single isomer, unassigned) [13D*]",7.72,8.92,
"O=S1(=O)CC2(CCN([C@H]3CC[C@H](c4cc(C(F)(F)F)nn4C4CC4)CC3)C2)C1 [Compound 12A, 6-((1r,4r)-4-(1-Cyclopropyl-3-(trifluoromethyl)-1H-pyrazol-5-yl)cyclohexyl)-2-thia-6-azaspiro[3.4]octane 2,2-dioxide]",7.47,7.96,
"CC(C)n1nc(-c2cncc(OC(F)F)c2)cc1[C@H]1CC[C@@H](N2CCC3(C2)CS(=O)(=O)C3)CC1 [Compound 33B, (Cis)-6-(4-(3-(5-(Difluoromethoxy)pyridin-3-yl)-1-isopropyl-1H-pyrazol-5-yl)cyclohexyl)-2-thia-6-azaspiro[3.4]octane 2,2-dioxide]",7.55,8.01,
"Cn1nc(C(F)(F)F)cc1[C@H]1CC[C@H](N2CC[C@]3(CCS(=O)(=O)C3)C2)CC1 (single isomer, unassigned) [27B*]",6.74,7.66,
"Cn1nc(C(F)(F)F)cc1[C@H]1CC[C@@H](N2CC[C@]3(CCS(=O)(=O)C3)C2)CC1 (single isomer, unassigned) [38A*]",7.09,7.31,
"CC(C)n1nc(C2CC2)nc1[C@H]1CC[C@H](N2CCC3(C2)CS(=O)(=O)C3)C1 (single isomer, unassigned) [18B*, 6-(3-(3-cyclopropyl-1-isopropyl-1H-1,2,4-triazol-5-yl)cyclopentyl)-2-thia-6-azaspiro[3.4]octane 2,2-dioxide]",6.19,6.70,
"O=S1(=O)CC2(CCN([C@H]3CC[C@@H](c4ccc(C(F)(F)F)nc4)CC3)C2)C1 [Compound 14B, 6-((1s,4s)-4-(6-(Trifluoromethyl)pyridin-3-yl)cyclohexyl)-2-thia-6-azaspiro[3.4]octane 2,2-dioxide]",7.55,7.37,
"Cc1cc(C(F)(F)F)ncc1N1CCC(N2CCC3(C2)CS(=O)(=O)C3)CC1 [Compound 28, 6-(1-(4-Methyl-6-(trifluoromethyl)pyridin-3-yl)piperidin-4-yl)-2-thia-6-azaspiro[3.4]octane 2,2-dioxide]",7.52,8.12,
"CC(C)n1nc(C(F)(F)F)cc1[C@@H]1CC[C@H](N2CCC3(C2)CS(=O)(=O)C3)C1 (single isomer, unassigned) [10C*]",7.58,8.52,
